Data set [1] deals with RAW264.7. The data set can be described thus: Cytotoxicity against mouse RAW264.7 cells assessed as effect on cell viability at 50 uM measured after 24 hrs by CCK-8 assay. Format: toxicity, cell-based. To be noted: raw264.7, 24 h.
Data set [2] relates to RAW264.7. The data set can be described thus: Anti-inflammatory activity against LPS-induced mouse RAW264.7 cells assessed as effect on TNF-alpha gene expression at 50 uM treated for 24 hrs by RT-qPCR analysis. Format: functional, cell-based.
The subject of data set [3] is RAW264.7. Description: Anti-inflammatory activity against LPS-induced mouse RAW264.7 cells assessed as reduction in IL-1beta gene expression at 50 uM treated for 24 hrs by RT-qPCR analysis relative to control. It is filed as functional. On the set-up: scale not given: the % may be the effect or the level left.
In data set [4] the test system is RAW264.7. The data set can be described thus: Anti-inflammatory activity against LPS-induced mouse RAW264.7 cells assessed as change in IL-6 gene expression at 50 uM treated for 24 hrs by RT-qPCR analysis. Format: functional, cell-based.
Data set [5] relates to RAW264.7. The data set can be described thus: Anti-inflammatory activity in mouse RAW264.7 cells assessed as inhibition of LPS-induced NO production at 25 to 50 uM preincubated for 1 hr followed by LPS stimulation for 24 hrs by Griess reagent assay. It is filed as functional, cell-based. To be noted: dose 25-50 µM, time 25.0 hrs.
Data set [6] has as its system RAW264.7. Description: Anti-inflammatory activity against LPS-induced mouse RAW264.7 cells assessed as inhibition in IL-6 release at 50 uM by ELISA. Format: functional, cell-based.
The subject of data set [7] is RAW264.7. Description: Anti-inflammatory activity in mouse RAW264.7 cells assessed as inhibition of LPS-induced NO production preincubated for 1 hr followed by LPS stimulation for 24 hrs by Griess reagent assay. It is filed as functional, cell-based. To be noted: for Activity: time 25.0 hrs.
Data set [8] has as its system RAW264.7. The data set can be described thus: Anti-inflammatory activity against LPS-induced mouse RAW264.7 cells assessed as decrease in IL-1beta gene expression by RT-qPCR analysis. To be noted: dose 10-50 µM. Format: functional, cell-based.
Data set [9] deals with RAW264.7. The data set can be described thus: Anti-inflammatory activity in mouse RAW264.7 cells assessed as reduction in LPS-induced NO production at 50 uM preincubated for 1 hr followed by LPS stimulation for 24 hrs by Griess reagent assay relative to control. Format: functional. To be noted: time 25 hrs. Also noted: scale not given: the % may be the effect or the level left.

Data set [10] relates to RAW264.7. The data set can be described thus: Anti-inflammatory activity against LPS-induced mouse RAW264.7 cells assessed as decrease in TNF-alpha gene expression by RT-qPCR analysis. The following applies: dose 10-50 µM. It is filed as functional, cell-based.
Data set [11] relates to RAW264.7. The data set can be described thus: Anti-inflammatory activity against LPS-induced mouse RAW264.7 cells assessed as inhibition in TNF-alpha release at 50 uM by ELISA. It is filed as functional, cell-based.
Data set [12] has as its system RAW264.7. The data set can be described thus: Anti-inflammatory activity against LPS-induced mouse RAW264.7 cells assessed as reduction in TNF-alpha gene expression at 50 uM treated for 24 hrs by RT-qPCR analysis relative to control. Also noted: scale not given: the % may be the effect or the level left. Format: functional.
Data set [13] deals with RAW264.7. Description: Anti-inflammatory activity against LPS-induced mouse RAW264.7 cells assessed as decrease in IL-6 gene expression at 50 uM treated for 24 hrs by RT-qPCR analysis relative to control. Format: functional. Also noted: scale not given: the % may be the effect or the level left.
The subject of data set [14] is RAW264.7. The data set can be described thus: Anti-inflammatory activity against LPS-induced mouse RAW264.7 cells assessed as decrease in IL-6 gene expression by RT-qPCR analysis. Format: functional, cell-based. The following applies: dose 10-50 µM.
Data set [15] relates to RAW264.7. The data set can be described thus: Anti-inflammatory activity against LPS-induced mouse RAW264.7 cells assessed as reduction in IL-1beta gene expression at 50 uM treated for 24 hrs by RT-qPCR analysis. It is filed as functional, cell-based.

Active and inactive are the calls of the source. The rule behind the calls is not given here.

In the case of `COc1cc(C(=O)OC[C@H]2O[C@@H](Oc3cc4occ(-c5ccc(O)cc5)c(=O)c4c(O)c3OC)[C@H](O)[C@@H](O)[C@@H]2O)ccc1O`, the Activity entry with RAW264.7 [1] is “Non-toxic”; with RAW264.7 [2] it was “Not active; Increase In Tnf-Alpha Gene Expression Observed”; in the data set with RAW264.7 [3], 4.1%; with RAW264.7 [4], “Not active; Increase In Il-6 Gene Expression Observed”. Besides, in the data set on RAW264.7 [5], the outcome was inactive.

Take `COc1c(O[C@@H]2O[C@H](CO)[C@@H](O)[C@H](O)[C@H]2O)cc2occ(-c3ccc(O)cc3)c(=O)c2c1O` [TECTORIDIN]: the Activity result with RAW264.7 [1] is “Non-toxic”; in the data set with RAW264.7 [3], 31.2%. Further, the result with RAW264.7 [2], with RAW264.7 [4] and in the data set with RAW264.7 [5] was inactive.

In the case of `COc1c(O)cc2occ(-c3ccc(O)cc3)c(=O)c2c1O` [TECTORIGENIN], the outcome in the data set on RAW264.7 [6] and in the data set on RAW264.7 [11] was Active. For the same compound, in the data set with RAW264.7 [7], the half-maximal inhibitory concentration (IC50) stood at 51.7 µM. Moreover, the Activity result in the data set with RAW264.7 [7] was “Dose-dependent-effect”; with RAW264.7 [8] it was “Dose-dependent-effect”; with RAW264.7 [1], “Non-toxic”; with RAW264.7 [9], 48.4%; in the data set on RAW264.7 [3] it was 90.8%; in the data set on RAW264.7 [10], “Dose-dependent-effect”. Further, the Activity in the data set on RAW264.7 [12] was 40%; in the data set on RAW264.7 [13], 87.8%; in the data set on RAW264.7 [14], “Dose-dependent-effect”.

As for `COc1c(O[C@@H]2O[C@H](CO)[C@@H](O)[C@H](O)[C@H]2O)cc(O)c2c(=O)c(-c3ccc(O)cc3)coc12`, the Activity entry in the data set with RAW264.7 [1] is recorded as “Non-toxic”; in the data set with RAW264.7 [3] it was 14.4%. Moreover, the outcome in the data set with RAW264.7 [2], in the data set with RAW264.7 [4] and in the data set with RAW264.7 [5] was inactive.

Consider `COc1c(O)cc(O)c2c(=O)c(-c3ccc(O)cc3)coc12` [PSI-TECTORIGENIN], for which the result in the data set with RAW264.7 [6] and with RAW264.7 [11] was Active. Further, the IC50 in the data set on RAW264.7 [7] stood at 26.8 µM. For the same compound, the Activity result in the data set with RAW264.7 [7] was “Dose-dependent-effect”; in the data set on RAW264.7 [8] it was “Dose-dependent-effect”; in the data set on RAW264.7 [1] it was “Non-toxic”; in the data set with RAW264.7 [9] it was approximately 100%; in the data set on RAW264.7 [3], 61%; with RAW264.7 [10], “Dose-dependent-effect”. Besides, the results for the Activity in the data set with RAW264.7 [12], in the data set with RAW264.7 [13] and in the data set on RAW264.7 [14] were 46.3%, 56% and “Dose-dependent-effect”, respectively.

As for `COc1c(O[C@@H]2O[C@H](CO)[C@@H](O)[C@H](O)[C@H]2O)cc2occ(-c3ccc(O[C@@H]4O[C@H](CO)[C@@H](O)[C@H](O)[C@H]4O)cc3)c(=O)c2c1O`, the Activity result with RAW264.7 [1] is “Non-toxic”; with RAW264.7 [15], “Not active; Increase In Il-1Beta Gene Expression Observed”. The outcome in the data set with RAW264.7 [2], in the data set with RAW264.7 [4] and with RAW264.7 [5] was inactive.

These data come from ChEMBL document CHEMBL6120999, “Total Synthesis and Anti-Inflammatory Activity of Tectoridin and Related Isoflavone Glucosides” (J Nat Prod, 2025).
